Experimental findings from US12281149B2, “Modulators of G-protein coupled receptors” (priority 2021, dated 2025) are described below.

What all share (assay type): cell-based
Test [1] addresses T1, GLP-1 receptor (Homo sapiens, UniProt P43220). Put plainly: HitHunter cAMP assay, GLP-1 receptor. The settings on record: for pEC50: CHO cells stably expressing human GLP-1 receptor, cAMP accumulation, 30 min, read-out: EC50 GLP-1R; for Emax: CHO cells, cAMP, normalized to maximum signal from GLP-1 (high) and DMSO (low), read-out: Emax GLP-1R. (Cyclic AMP is a second messenger, typically raised through Gs and lowered through Gi signalling.)

Test [2] concerns the target T2, GIP receptor (Homo sapiens, UniProt P48546).
T2 sequence (P48546 22-466): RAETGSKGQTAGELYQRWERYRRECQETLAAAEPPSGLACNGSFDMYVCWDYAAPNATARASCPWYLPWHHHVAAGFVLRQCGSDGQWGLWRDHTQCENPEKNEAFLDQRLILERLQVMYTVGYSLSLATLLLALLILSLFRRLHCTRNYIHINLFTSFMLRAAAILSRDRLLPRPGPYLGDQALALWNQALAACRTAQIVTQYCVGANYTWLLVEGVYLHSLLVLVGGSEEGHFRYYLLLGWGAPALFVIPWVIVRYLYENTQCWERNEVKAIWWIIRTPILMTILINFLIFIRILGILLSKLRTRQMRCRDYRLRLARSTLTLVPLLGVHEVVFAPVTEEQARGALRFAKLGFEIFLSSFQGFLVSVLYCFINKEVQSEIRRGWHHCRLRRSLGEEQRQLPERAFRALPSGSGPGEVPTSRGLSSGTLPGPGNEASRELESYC
Briefly: HitHunter cAMP assay, GIP receptor. As to conditions: for pEC50: CHO cells stably expressing GIP receptor, cAMP accumulation, 30 min, read-out: EC50 GIP-1R; for Emax: CHO cells, cAMP, normalized to maximum signal from GIP (high) and DMSO (low), read-out: Emax GIP-1R.

Test [3] concerns the target T2, GIP receptor. Put plainly: PathHunter β-arrestin assay, GIP receptor. Also on record: host or cells: PathHunter CHO-K1 GIPR β-Arrestin Cell Line. As to conditions: β-arrestin-2 recruitment, PathHunter CHO-K1 GIPR β-Arrestin Cell Line, 90 min at 37° C.; normalized to GIP; read-out: GIPR β Arrestin EC50. (Arrestin recruitment assays detect the binding of arrestin to an activated receptor.)

In test [4] the target is T1, GLP-1 receptor. Put plainly: PathHunter β-arrestin assay, GLP-1 receptor. Also on record: host or cells: PathHunter CHO-K1 GLP1R β-Arrestin Cell Line. As to conditions: β-arrestin-2 recruitment, PathHunter CHO-K1 GLP1R β-Arrestin Cell Line, 90 min at 37° C.; normalized to GLP-1; read-out: GLP-1R β Arrestin EC50.

pEC50: −log10 of the molar value. *1 amine or outer side, *2 acyl side, *3 side chain or, on linkers, in order; H or OH if unused. Where a SMILES comes first, the peptide text is derived from it. Side-chain parts run from the residue outwards. [ ]: non-standard residue; d: D form. The star is where a group is joined. Isobutyryl(2-(3-CN-5-F-Ph)) = CC(C)(C(=O)*)c1cc(F)cc(C#N)c1; C20 diacid = O=C(O)CCCCCCCCCCCCCCCCCCC(=O)*; βPro(3S) = O=C([C@H]1CCN([*:1])C1)[*:2]; γGlu = O=C(O)[C@H](CCC(=O)[*:2])N[*:1]; X19 = O=C1COc2ccccc2N1CCNCCC(=O)*; X50 = CC(C)(N*)c1ccc(F)c(F)c1; Suc = O=C(CCC(=O)[*:2])[*:1]; AEEA = NCCOCCOCC(=O)O; Aib = CC(C)(N)C(=O)O; βAla = NCCC(=O)O

T1 sequence (P43220 24-463): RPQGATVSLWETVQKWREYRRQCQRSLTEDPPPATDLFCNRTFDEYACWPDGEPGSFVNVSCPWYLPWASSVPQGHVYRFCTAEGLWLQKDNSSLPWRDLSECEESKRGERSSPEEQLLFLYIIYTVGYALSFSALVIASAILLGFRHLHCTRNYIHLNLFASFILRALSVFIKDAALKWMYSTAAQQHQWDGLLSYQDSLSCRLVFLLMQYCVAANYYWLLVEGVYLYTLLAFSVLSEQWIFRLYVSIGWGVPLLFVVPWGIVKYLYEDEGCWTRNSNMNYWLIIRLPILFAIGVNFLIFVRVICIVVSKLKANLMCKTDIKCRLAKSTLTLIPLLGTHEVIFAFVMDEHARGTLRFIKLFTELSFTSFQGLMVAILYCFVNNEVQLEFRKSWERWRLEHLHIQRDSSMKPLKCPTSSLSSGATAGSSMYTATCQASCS

With `CC[C@H](C)[C@H](NC(=O)[C@H](CC(C)C)NC(=O)[C@H](Cc1c[nH]c2ccccc12)NC(=O)[C@H](CCC(N)=O)NC(=O)[C@@H](NC(=O)[C@H](Cc1ccccc1)NC(=O)[C@H](C)NC(=O)[C@H](CCCCNC(=O)COCCOCCNC(=O)COCCOCCNC(=O)CC[C@H](NC(=O)CCCCCCCCCCCCCCCCCCC(=O)O)C(=O)O)NC(=O)[C@H](CCC(N)=O)NC(=O)[C@H](C)NC(=O)[C@@H](NC(=O)[C@H](CCCCN)NC(=O)[C@H](CC(=O)O)NC(=O)[C@H](CC(C)C)NC(=O)C(C)(C)NC(=O)[C@@H](NC(=O)[C@H](CO)NC(=O)[C@H](Cc1ccc(O)cc1)NC(=O)[C@H](CC(=O)O)NC(=O)[C@H](CO)NC(=O)[C@H](C)NC(=O)[C@H](Cc1ccccc1)NC(=O)[C@@H](NC(=O)CNC(=O)[C@H](CCC(=O)O)NC(=O)CCNC(=O)C(C)(C)c1cc(F)cc(C#N)c1)[C@@H](C)O)[C@@H](C)CC)[C@@H](C)CC)C(C)C)C(=O)N[C@@H](C)C(=O)NCC(=O)NCC(=O)N1CCC[C@H]1C(=O)N[C@@H](CO)C(=O)N[C@@H](CO)C(=O)NCC(=O)N[C@@H](C)C(=O)N1CCC[C@H]1C(=O)N1CCC[C@H]1C(=O)N1CCC[C@H]1C(=O)N[C@@H](CO)C(N)=O` [Compound 168] ({Isobutyryl(2-(3-CN-5-F-Ph))-βAla}-EGTFASDYSI[Aib]LDKIAQK([AEEA-AEEA-γGlu-C20 diacid])AFVQWLIAGGPSSGAPPPS-NH2), the negative logarithm of the EC50 (pEC50) on GLP-1 receptor [1] was 7.00 to 8.00; on GIP receptor [2] it was 8.00 to 9.00; on GIP receptor [3] it was above 6.00; on GLP-1 receptor [4], below 6.00. Besides, the figures for the Emax on GLP-1 receptor [1] and on GIP receptor [2] were 87% and 112%, respectively.

As for `CC[C@H](C)[C@H](NC(=O)[C@H](CC(C)C)NC(=O)[C@H](Cc1c[nH]c2ccccc12)NC(=O)[C@H](CCC(N)=O)NC(=O)[C@@H](NC(=O)[C@H](Cc1ccccc1)NC(=O)[C@H](C)NC(=O)[C@H](CCCCNC(=O)COCCOCCNC(=O)COCCOCCNC(=O)CC[C@H](NC(=O)CCCCCCCCCCCCCCCCCCC(=O)O)C(=O)O)NC(=O)[C@H](CCC(N)=O)NC(=O)[C@H](C)NC(=O)[C@@H](NC(=O)[C@H](CCCCN)NC(=O)[C@H](CC(=O)O)NC(=O)[C@H](CC(C)C)NC(=O)C(C)(C)NC(=O)[C@@H](NC(=O)[C@H](CO)NC(=O)[C@H](Cc1ccc(O)cc1)NC(=O)[C@H](CC(=O)O)NC(=O)[C@H](CO)NC(=O)[C@@H](NC(=O)[C@H](Cc1ccccc1)NC(=O)[C@@H](NC(=O)CNC(=O)[C@H](CCC(=O)O)NC(=O)CCC(=O)NC(C)(C)c1ccc(F)c(F)c1)[C@@H](C)O)[C@@H](C)O)[C@@H](C)CC)[C@@H](C)CC)C(C)C)C(=O)N[C@@H](C)C(=O)NCC(=O)NCC(=O)N1CCC[C@H]1C(=O)N[C@@H](CO)C(=O)N[C@@H](CO)C(=O)NCC(=O)N[C@@H](C)C(=O)N1CCC[C@H]1C(=O)N1CCC[C@H]1C(=O)N1CCC[C@H]1C(=O)N[C@@H](CO)C(N)=O` [Compound 280] ({X50-Suc}-EGTFTSDYSI[Aib]LDKIAQK([AEEA-AEEA-γGlu-C20 diacid])AFVQWLIAGGPSSGAPPPS-NH2), the pEC50 on GLP-1 receptor [1] is 8.00 to 9.00; on GIP receptor [2], 8.00 to 9.00; at GIP receptor [3] it was below 6.00; on GLP-1 receptor [4], below 6.00. Moreover, the figures for the maximum response (Emax) on GLP-1 receptor [1] and on GIP receptor [2] were 90% and 114%, respectively.

Consider `CC[C@H](C)[C@H](NC(=O)[C@H](CC(C)C)NC(=O)[C@H](Cc1c[nH]c2ccccc12)NC(=O)[C@H](CCC(N)=O)NC(=O)[C@@H](NC(=O)[C@H](Cc1ccccc1)NC(=O)[C@H](C)NC(=O)[C@H](CCCCNC(=O)COCCOCCNC(=O)COCCOCCNC(=O)CC[C@H](NC(=O)CCCCCCCCCCCCCCCCCCC(=O)O)C(=O)O)NC(=O)[C@H](CCC(N)=O)NC(=O)[C@H](C)NC(=O)[C@@H](NC(=O)[C@H](CCCCN)NC(=O)[C@H](CC(=O)O)NC(=O)[C@H](CC(C)C)NC(=O)C(C)(C)NC(=O)[C@@H](NC(=O)[C@H](CO)NC(=O)[C@H](Cc1ccc(O)cc1)NC(=O)[C@H](CC(=O)O)NC(=O)[C@H](CO)NC(=O)[C@@H](NC(=O)[C@H](Cc1ccccc1)NC(=O)[C@@H](NC(=O)CNC(=O)[C@H](CCC(=O)O)NC(=O)[C@H]1CCN(C(=O)C(C)(C)c2cc(F)cc(C#N)c2)C1)[C@@H](C)O)[C@@H](C)O)[C@@H](C)CC)[C@@H](C)CC)C(C)C)C(=O)N[C@@H](C)C(=O)NCC(=O)NCC(=O)N1CCC[C@H]1C(=O)N[C@@H](CO)C(=O)N[C@@H](CO)C(=O)NCC(=O)N[C@@H](C)C(=O)N1CCC[C@H]1C(=O)N1CCC[C@H]1C(=O)N1CCC[C@H]1C(=O)N[C@@H](CO)C(N)=O` [Compound 195] ({Isobutyryl(2-(3-CN-5-F-Ph))}-[βPro(3S)]EGTFTSDYSI[Aib]LDKIAQK([AEEA-AEEA-γGlu-C20 diacid])AFVQWLIAGGPSSGAPPPS-NH2), for which the negative logarithm of the EC50 (pEC50) at GLP-1 receptor [1] was 6.00 to 7.00; on GIP receptor [2], 6.00 to 7.00; on GIP receptor [3], below 6.00; on GLP-1 receptor [4], below 6.00. The Emax was found to be 51% at GLP-1 receptor [1] and 72% on GIP receptor [2].

As to `CC[C@H](C)[C@H](NC(=O)[C@H](CC(C)C)NC(=O)[C@H](Cc1c[nH]c2ccccc12)NC(=O)[C@H](CCC(N)=O)NC(=O)[C@@H](NC(=O)[C@H](Cc1ccccc1)NC(=O)[C@H](C)NC(=O)[C@H](CCCCNC(=O)COCCOCCNC(=O)COCCOCCNC(=O)CC[C@H](NC(=O)CCCCCCCCCCCCCCCCCCC(=O)O)C(=O)O)NC(=O)[C@H](CCC(N)=O)NC(=O)[C@H](C)NC(=O)[C@@H](NC(=O)[C@H](CCCCN)NC(=O)[C@H](CC(=O)O)NC(=O)[C@H](CC(C)C)NC(=O)C(C)(C)NC(=O)[C@@H](NC(=O)[C@H](CO)NC(=O)[C@H](Cc1ccc(O)cc1)NC(=O)[C@H](CC(=O)O)NC(=O)[C@H](CO)NC(=O)[C@@H](NC(=O)[C@H](Cc1ccccc1)NC(=O)[C@@H](NC(=O)CNC(=O)[C@H](CCC(=O)O)NC(=O)CCNC(=O)C(C)(C)c1cc(F)cc(C#N)c1)[C@@H](C)O)C(C)C)[C@@H](C)CC)[C@@H](C)CC)C(C)C)C(=O)N[C@@H](C)C(=O)NCC(=O)NCC(=O)N1CCC[C@H]1C(=O)N[C@@H](CO)C(=O)N[C@@H](CO)C(=O)NCC(=O)N[C@@H](C)C(=O)N1CCC[C@H]1C(=O)N1CCC[C@H]1C(=O)N1CCC[C@H]1C(=O)N[C@@H](CO)C(N)=O` [Compound 166] ({Isobutyryl(2-(3-CN-5-F-Ph))-βAla}-EGTFVSDYSI[Aib]LDKIAQK([AEEA-AEEA-γGlu-C20 diacid])AFVQWLIAGGPSSGAPPPS-NH2), the pEC50 at GLP-1 receptor [1] was 7.00 to 8.00; at GIP receptor [2], 8.00 to 9.00; on GIP receptor [3] it was above 6.00; at GLP-1 receptor [4], below 6.00. Also, the maximal response (Emax) on GLP-1 receptor [1] amounted to 77%; on GIP receptor [2], 108%.

Turning to `CC[C@H](C)[C@H](NC(=O)[C@H](CC(C)C)NC(=O)[C@H](Cc1c[nH]c2ccccc12)NC(=O)[C@H](CCC(N)=O)NC(=O)[C@@H](NC(=O)[C@H](Cc1ccccc1)NC(=O)[C@H](C)NC(=O)[C@H](CCCCNC(=O)COCCOCCNC(=O)COCCOCCNC(=O)CC[C@H](NC(=O)CCCCCCCCCCCCCCCCCCC(=O)O)C(=O)O)NC(=O)[C@H](CCC(N)=O)NC(=O)[C@H](C)NC(=O)[C@@H](NC(=O)[C@H](CCCCN)NC(=O)[C@H](CC(=O)O)NC(=O)[C@H](CC(C)C)NC(=O)C(C)(C)NC(=O)[C@@H](NC(=O)[C@H](CO)NC(=O)[C@H](Cc1ccc(O)cc1)NC(=O)[C@H](CC(=O)O)NC(=O)[C@H](CO)NC(=O)[C@@H](NC(=O)[C@H](Cc1ccccc1)NC(=O)[C@@H](NC(=O)CNC(=O)[C@H](CCC(=O)O)NC(=O)CCNCCN1C(=O)COc2ccccc21)[C@@H](C)O)[C@@H](C)O)[C@@H](C)CC)[C@@H](C)CC)C(C)C)C(=O)N[C@@H](C)C(=O)NCC(=O)NCC(=O)N1CCC[C@H]1C(=O)N[C@@H](CO)C(=O)N[C@@H](CO)C(=O)NCC(=O)N[C@@H](C)C(=O)N1CCC[C@H]1C(=O)N1CCC[C@H]1C(=O)N1CCC[C@H]1C(=O)N[C@@H](CO)C(N)=O` [Compound 276] (X19-EGTFTSDYSI[Aib]LDKIAQK([AEEA-AEEA-γGlu-C20 diacid])AFVQWLIAGGPSSGAPPPS-NH2), the pEC50 at GLP-1 receptor [1] was 7.00 to 8.00; at GIP receptor [2], 6.00 to 7.00; on GIP receptor [3], below 6.00; on GLP-1 receptor [4], below 6.00. Besides, the Emax came to 95% at GLP-1 receptor [1] and 35% on GIP receptor [2].

By pEC50 is commonly meant −log10 of the EC50, conventionally taken in molar units. As a reminder, the Emax is the maximal effect, on the per cent scale that the assay sets.
